Tested on: A431 cells
Experiment: Assay for total NADH and NAD+ measurements in cells
Assay type: cell-based
Set-up: C: change in NAD levels in response to test compound, shown as % of NAD activity in the absence of test compound: concentration or dose not given beside the values
Settings: percent of NAD level of untreated control cells (100 = no change)
Procedure: 2,000 cells/well and, at the same time, test compounds dissolved in media at the desired concentration were added to each well. The treated cells were incubated overnight in C02 incubator. The cells were washed 6 times with PBS with 1 mM CaCl2) and 1 mM MgCl2. In the last wash, 10 μL of PBS with 1 mM CaCl2) and 1 mM MgCl2 per well were left in each well. Immediately thereafter, 10 μL 0.4% dodecyltrimethylammonium bromide (DTAB) in phosphate buffer pH 8.0 as added, and the plates were shaked at 1000 rpm for 5 minutes. 60 μL reaction mix was added, and fluorescence at Ex/Em 530/585 was immediately monitored. A linear increase should be achieved with 8 cycles every 92 seconds, 10 number of flashes/well/cycle. The reaction mix was prepared per the following table, respecting the amount and order in which each component was added:
All assays were performed in A431 cells. Referring to the tables below, activity: “+” ≥25 μM, “++” ≥1 μM and <25 μM, and “+++”<1 μM.
In each table header, A: NAMPT enzyme inhibitory activity, IC50 (μM); B: Cellular NAD inhibitory activity, IC50 (μM); and C: change in NAD levels in response to test compound, shown as % of NAD activity in the absence of test compound. […] A percentage of 100 percent would indicate no increase or decrease in NAD levels as compared to that measured for untreated control cells, while a percentage of 50 percent would indicate a decrease in NAD levels of 50 percent as compared to that measured for untreated control cells.

Row | Structure (SMILES) | C: change in NAD levels in response to test compound, shown as % of NAD activity in the absence of test compound [%]
1 | Cn1cnnc1-c1ccc2nc(-c3ccc(F)cc3)c(-c3ccc(F)cc3)nc2c1 [BC19101] | 53
2 | CN1CCN(C(=O)c2ccc3nc(C(F)(F)F)c(-c4ccc(F)cc4)nc3c2)CC1 [BC19103] | 92
3 | Cn1nnnc1-c1ccc2nc(C(F)(F)F)c(-c3ccc(F)cc3)nc2c1 [BC19112] | 86
4 | C#CCNC(=O)c1ccc2nc(-c3cccs3)c(-c3ccc(F)cc3)nc2c1 [BC19120] | 84
5 | Cn1nnnc1-c1ccc2nc(-c3ccc(F)cc3)c(-c3ccc(F)cc3)nc2c1 [BC19139] | 29
6 | Cc1cnc(-c2ccc3nc(-c4ccc(F)cc4)c(-c4ccc(F)cc4)nc3c2)o1 [BC19140] | 90
7 | Cc1nnc(-c2ccc3nc(-c4ccc(F)cc4)c(-c4ccc(F)cc4)nc3c2)o1 [BC19141] | 62
8 | CN1CCN(C(=O)c2ccc3nc(C(F)(F)F)c(-c4cccc(F)c4)nc3c2)CC1 [BC19142] | 94
9 | Fc1ccc(-c2nc3ccc(-c4nnc[nH]4)cc3nc2-c2ccc(F)cc2)cc1 [BC19143] | 80
10 | Cn1cc(-c2ccc3nc(-c4ccc(F)cc4)c(-c4ccc(F)cc4)nc3c2)nn1 [BC19148] | 80
11 | Fc1ccc(-c2nc3ccc(-c4c[nH]nn4)cc3nc2-c2ccc(F)cc2)cc1 [BC19150] | 89
12 | Cn1nnnc1-c1ccc2nc(-c3ccc(F)cc3)c(C(F)(F)F)nc2c1 [BC19152] | 93
13 | C#CCNC(=O)c1ccc2nc(-c3ccc(F)cc3)c(-c3ccc(F)cc3)nc2c1 [BC19154] | 73
14 | Fc1ccc(-c2nc3ccc(-c4nnc[nH]4)cc3nc2C(F)(F)F)cc1 [BC19159] | 92
15 | CN1CCN(C(=O)c2ccc3nc(-c4ccc(F)cc4)c(-c4cccs4)nc3c2)CC1 [BC19185] | 94
16 | N#Cc1ccc2nc(-c3ccc(F)cc3)c(-c3ccc(F)cc3)nc2c1 [BC19192] | 76
17 | N=C(NO)c1ccc2nc(-c3ccc(F)cc3)c(-c3ccc(F)cc3)nc2c1 [BC19194] | 45
18 | CC(C)OC(=O)Nc1ccc2nc(-c3ccc(F)cc3)c(-c3ccc(F)cc3)nc2c1 [BC19195] | 90
19 | O=C(NCCN1CCOCC1)c1ccc2nc(-c3ccc(F)cc3)c(-c3ccc(F)cc3)nc2c1 [BC19237] | 24
20 | Fc1ccc(-c2nc3ccc(-c4nnnn4CCN4CCOCC4)cc3nc2-c2ccc(F)cc2)cc1 [BC19238] | 68
21 | O=C(Nc1ccc2nc(-c3ccc(F)cc3)c(-c3ccc(F)cc3)nc2c1)OCC(F)(F)F [BC19239] | 66
22 | Fc1ccc(-c2nc3ccc(-c4cn(CCN5CCOCC5)nn4)cc3nc2-c2ccc(F)cc2)cc1 [BC19240] | 27
23 | Cc1nc(C)c(-c2ccc3nc(-c4ccc(F)cc4)c(-c4ccc(F)cc4)nc3c2)s1 [BC19241] | 79
24 | Fc1ccc(-c2nc3ccc(-c4cccnc4)cc3nc2-c2ccc(F)cc2)cc1 [BC19242] | 72
25 | CS(=O)(=O)c1cncc(-c2ccc3nc(-c4ccc(F)cc4)c(-c4ccc(F)cc4)nc3c2)c1 [BC19243] | 64
26 | CN1CCOc2cc(-c3ccc4nc(-c5ccc(F)cc5)c(-c5ccc(F)cc5)nc4c3)ccc21 [BC19244] | 86
27 | Fc1ccc(-c2nc3ccc(-c4ccncc4)cc3nc2-c2ccc(F)cc2)cc1 [BC19245] | 67

Row | Structure (SMILES) | C: change in NAD levels in response to test compound, shown as % of NAD activity in the absence of test compound [%]
28 | CCc1nnc(-c2ccc3nc(-c4ccc(F)cc4)c(-c4ccc(F)cc4)nc3c2)o1 [BC19246] | 58
29 | CCCc1nnc(-c2ccc3nc(-c4ccc(F)cc4)c(-c4ccc(F)cc4)nc3c2)[nH]1 [BC19247] | 94
30 | Fc1ccc(-c2nc3ccc(-c4nnco4)cc3nc2-c2ccc(F)cc2)cc1 [BC19250] | 13
31 | O=C(Nc1ccc2nc(-c3ccc(F)cc3)c(-c3ccc(F)cc3)nc2c1)C1CCNCC1 [BC19251] | 0
32 | Cc1nnc(-c2ccc3nc(-c4ccc(F)cc4)c(-c4ccc(F)cc4)nc3c2)n1C [BC19301] | 57
33 | Cn1cc(-c2ccc3nc(-c4ccc(F)cc4)c(-c4ccc(F)cc4)nc3c2)cn1 [BC19302] | 58
34 | Cc1ccncc1-c1ccc2nc(-c3ccc(F)cc3)c(-c3ccc(F)cc3)nc2c1 [BC19304] | 69
35 | Cn1ncc2c(-c3ccc4nc(-c5ccc(F)cc5)c(-c5ccc(F)cc5)nc4c3)cccc21 [BC19305] | 93
36 | Fc1ccc(-c2nc3ccc(-c4nncn4CCN4CCOCC4)cc3nc2-c2ccc(F)cc2)cc1 [BC19306] | 76
37 | Cc1ccc(S(=O)(=O)c2nc3cc(C(=O)N4CCN(C)CC4)ccc3nc2-c2ccc(F)cc2)cc1F [BC19307] | 31
38 | Cc1ccc(S(=O)(=O)c2nc3cc(C(=O)N4CCN(C)CC4)ccc3nc2-c2ccc(F)cc2)cc1 [BC19308] | 48
39 | CN1CCC(C(=O)Nc2ccc3nc(-c4ccc(F)cc4)c(-c4ccc(F)cc4)nc3c2)CC1 [BC19309] | 18
40 | CC(=O)N1CCC(C(=O)Nc2ccc3nc(-c4ccc(F)cc4)c(-c4ccc(F)cc4)nc3c2)CC1 [BC19310] | 52
41 | CNC(=O)N1CCC(C(=O)Nc2ccc3nc(-c4ccc(F)cc4)c(-c4ccc(F)cc4)nc3c2)CC1 [BC19311] | 63
42 | CS(=O)(=O)N1CCC(C(=O)Nc2ccc3nc(-c4ccc(F)cc4)c(-c4ccc(F)cc4)nc3c2)CC1 [BC19312] | 54
43 | C=CC(=O)Nc1ccc2nc(-c3ccc(F)cc3)c(-c3ccc(F)cc3)nc2c1 [BC19313] | 91
44 | CC#CC(=O)Nc1ccc2nc(-c3ccc(F)cc3)c(-c3ccc(F)cc3)nc2c1 [BC19314] | 33
45 | C[C@H](Cl)C(=O)Nc1ccc2nc(-c3ccc(F)cc3)c(-c3ccc(F)cc3)nc2c1 [BC19315] | 89
46 | CN1CCN(C(=O)c2ccc3nc(-c4ccc(F)cc4)c(-c4ccc(Cl)cc4)nc3c2)CC1 [BC19317] | 42
47 | CN1CCN(C(=O)c2ccc3nc(-c4ccc(F)cc4)c(-c4ccc(F)cc4F)nc3c2)CC1 [BC19318] | 67
48 | CCc1ccc(-c2nc3cc(C(=O)N4CCN(C)CC4)ccc3nc2-c2ccc(F)cc2)cc1 [BC19319] | 95
49 | C#CCNC(=O)c1cccc2nc(-c3ccc(F)cc3)c(-c3ccc(F)cc3)nc12 [BC19321] | 72
50 | CN1CCN(C(=O)c2ccc3nc(-c4ccc(F)cc4)c(S(=O)(=O)c4cccc(F)c4)nc3c2)CC1 [BC19395] | 71
51 | OCCn1cc(-c2ccc3nc(-c4ccc(F)cc4)c(-c4ccc(F)cc4)nc3c2)nn1 [BC19396] | 60
52 | C#CC(=O)Nc1ccc2nc(-c3ccc(F)cc3)c(-c3ccc(F)cc3)nc2c1 [BC19397] | 65
53 | CN1CCN(C(=O)c2ccc3nc(-c4ccc(F)cc4)c(-c4ccc(Cl)cc4Cl)nc3c2)CC1 [BC19398] | 94
